Source: US20100267561A1, “HERBICIDAL PYRIDAZINONE DERIVATIVES” (priority 2007, published 2010)

Columns and labels:
Format in all cases: in vivo
[1] = tested on: morningglory (Ipomoea coccinea); test: Test A pre-/postemergence plant response
How it was run: (§1)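 Ratings are visual, 0–100, where 100 means complete control and 0 no effect, taken roughly 10 days after treatment by comparison with untreated controls. Formulation: non-phytotoxic solvent mixture with surfactant.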

[2] = tested on: pigweed (Amaranthus retroflexus); test: Test A pre-/postemergence plant response
How it was run: as §1

[3] = tested on: barnyardgrass (Echinochloa crus-galli); test: Test A pre-/postemergence plant response
How it was run: as §1

[4] = tested on: large crabgrass (Digitaria sanguinalis); test: Test A pre-/postemergence plant response
How it was run: as §1

corn (Zea mays) = test: Test A pre-/postemergence plant response
How it was run: as §1

[5] = tested on: bermudagrass (Cynodon dactylon); test: Test B pre-/postemergence plant response; details: for Bermudagrass plant response rating: 8 g ai/ha
How it was run: (§2)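 Preemergence and postemergence (plants 2-18 cm, 1- to 4-leaf stage) applications used test chemicals in a non-phytotoxic solvent with surfactant. Plants were held in a greenhouse 13 to 15 days, then rated visually against controls on a 0-100 scale (0 no effect, 100 complete control).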

[6] = tested on: Italian ryegrass (Lolium multiflorum); test: Test B pre-/postemergence plant response
How it was run: as §2

[7] = tested on: johnsongrass (Sorghum halepense); test: Test B pre-/postemergence plant response
How it was run: as §2

[8] = tested on: chickweed (Stellaria media); test: Test B postemergence plant response; details: for Chickweed plant response rating: 8 g ai/ha, postemergence, 0-100 scale; for Plant response rating, Chickweed: Postemergence
How it was run: (§3)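 Postemergence spray on 1- to 4-leaf plants (2–18 cm); greenhouse 13–15 d; visual rating vs controls, 0 = no effect, 100 = complete control; dash = not tested.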

[9] = tested on: windgrass (Apera spica-venti); test: Test B postemergence plant response; details: for Windgrass plant response rating: postemergence, 0-100 scale; for Plant response rating, Windgrass: Postemergence
How it was run: as §3

[10] = tested on: winter barley (Hordeum vulgare); test: Test B postemergence plant response; details: for Barley plant response rating: 8 g ai/ha, postemergence, 0-100 scale; for Plant response rating, Barley: Postemergence, scale 0 to 100, 0 no effect, 100 complete control
How it was run: as §3

[11] = tested on: canarygrass (Phalaris minor); test: Test B postemergence plant response; details: for Canarygrass plant response rating: 8 g ai/ha, postemergence, 0-100 scale; for Plant response rating, Canarygrass: Postemergence
How it was run: as §3

[12] = Postemergence, 31 g ai/ha, 0 to 100 scale, 0 no effect, 100 complete control
[13] = Postemergence, 125 g ai/ha, 0 to 100 scale, 0 no effect, 100 complete control
[14] = Preemergence, 31 g ai/ha, 0 to 100 scale, 0 is no effect, 100 is complete control
[15] = Preemergence, 125 g ai/ha, 0 to 100 scale (0 no effect, 100 complete control)
[16] = Postemergence, 16 g ai/ha, scale 0 to 100
[17] = Postemergence, 31 g ai/ha, scale 0 to 100
[18] = Postemergence, 62 g ai/ha, scale 0 to 100, 0 no effect, 100 complete control
[19] = Preemergence, scale 0 to 100 (0 no effect, 100 complete control)
[20] = Preemergence, 16 g ai/ha, scale 0 to 100 (0 no effect, 100 complete control)
[21] = Preemergence, 31 g ai/ha, scale 0 to 100 (0 no effect, 100 complete control)
[22] = Preemergence, 62 g ai/ha, 0 to 100 scale, 0 no effect, 100 complete control
[23] = 8 g ai/ha, postemergence, 0-100 scale
[24] = 16 g ai/ha, postemergence, 0-100 scale
[25] = Preemergence, 8 g ai/ha, scale 0 to 100
[26] = Preemergence, 16 g ai/ha, scale 0 to 100
[27] = 62 g ai/ha, scale 0 to 100, 0 no effect, 100 complete control
[28] = Postemergence, 31 g ai/ha, scale 0 to 100, 0 no effect, 100 complete control
[29] = Preemergence, 31 g ai/ha, 0 to 100 scale, 0 no effect, 100 complete control
[30] = Preemergence, 62 g ai/ha, scale 0 to 100
[31] = 31 g ai/ha, scale 0 to 100, 0 no effect, 100 complete control

Question: What does the source list for `CCc1cc(-c2ccc(C(F)(F)F)cc2)nn1-c1c(O)c(OC)nn(C)c1=O` [Compound 66]?
Answer: Plant response rating, Morningglory [1, 12]: 0; Plant response rating, Morningglory [1, 13]: 0; Plant response rating, Morningglory [1, 14]: 0; Plant response rating, Morningglory [1, 15]: 0; Plant response rating, Pigweed [2, 12]: 0; Plant response rating, Pigweed [2, 13]: 0; Plant response rating, Pigweed [2, 14]: 0; Plant response rating, Pigweed [2, 15]: 0; Plant response rating, Barnyardgrass [3, 12]: 100; Plant response rating, Barnyardgrass [3, 13]: 100; Plant response rating, Barnyardgrass [3, 14]: 10; Plant response rating, Barnyardgrass [3, 15]: 100; Plant response rating, Crabgrass, Large [4, 12]: 100; Plant response rating, Crabgrass, Large [4, 13]: 100; Plant response rating, Crabgrass, Large [4, 14]: 0; Plant response rating, Crabgrass, Large [4, 15]: 70; Plant response rating, Corn (corn (Zea mays); [12]): 100; Plant response rating, Corn (corn (Zea mays); [13]): 100; Plant response rating, Corn (corn (Zea mays); [14]): 40; Plant response rating, Corn (corn (Zea mays); [15]): 80; Bermudagrass plant response rating ([5]; postemergence, 0-100 scale): 20; Plant response rating, Bermudagrass [5, 16]: 98; Plant response rating, Bermudagrass [5, 17]: 100; Plant response rating, Bermudagrass [5, 18]: 100; Bermudagrass plant response rating [5, 19]: 0; Plant response rating, Bermudagrass [5, 20]: 85; Plant response rating, Bermudagrass [5, 21]: 98; Plant response rating, Bermudagrass [5, 22]: 100; Ryegrass, Italian plant response rating [6, 23]: 60; Ryegrass, Italian plant response rating [6, 24]: 100; Plant response rating, Ryegrass, Italian [6, 17]: 100; Plant response rating, Ryegrass, Italian [6, 18]: 100; Plant response rating, Ryegrass, Italian [6, 21]: 100; Plant response rating, Ryegrass, Italian [6, 22]: 100; Ryegrass, Italian plant response rating [6, 25]: 100; Ryegrass, Italian plant response rating [6, 26]: 100; Johnsongrass plant response rating [7, 23]: 75; Johnsongrass plant response rating [7, 24]: 100; Plant response rating, Johnsongrass [7, 17]: 100; Plant response rating, Johnsongrass [7, 18]: 100; Plant response rating, Johnsongrass [7, 21]: 98; Plant response rating, Johnsongrass [7, 22]: 100; Johnsongrass plant response rating [7, 25]: 70; Johnsongrass plant response rating [7, 26]: 95; Chickweed plant response rating [8]: 0; Plant response rating, Chickweed ([8]; 16 g ai/ha, scale 0 to 100): 0; Plant response rating, Chickweed ([8]; 31 g ai/ha, scale 0 to 100): 0; Plant response rating, Chickweed [8, 27]: 0; Windgrass plant response rating ([9]; 8 g ai/ha): 90; Windgrass plant response rating ([9]; 16 g ai/ha): 100; Plant response rating, Windgrass ([9]; 31 g ai/ha, scale 0 to 100): 100; Plant response rating, Windgrass [9, 27]: 100; Barley plant response rating [10]: 90; Plant response rating, Barley ([10]; 16 g ai/ha): 98; Plant response rating, Barley ([10]; 31 g ai/ha): 100; Canarygrass plant response rating [11]: 40; Plant response rating, Canarygrass ([11]; 16 g ai/ha, scale 0 to 100): 90; Plant response rating, Canarygrass ([11]; 31 g ai/ha, scale 0 to 100): 95

Question: For `CCCc1cc(-c2ccc(Cl)cc2)nn1-c1c(O)cnn(C)c1=O` [Compound 43], which “Plant response rating, Morningglory” value [1, 12] is on record?
Answer: Its value is 0.

Question: What about the “Plant response rating, Morningglory” value [1, 13] of the same compound?
Answer: Its value is 0.

Question: And the “Plant response rating, Morningglory” value [1, 14]?
Answer: The value was 0.

Question: And the “Plant response rating, Morningglory” value [1, 15]?
Answer: The value was 0.

Question: And the “Plant response rating, Pigweed” value [2, 12]?
Answer: The value was 0.

Question: And the “Plant response rating, Pigweed” value [2, 13]?
Answer: Its value is 0.

Question: And the “Plant response rating, Pigweed” value [2, 14]?
Answer: Its value is 0.

Question: And the “Plant response rating, Pigweed” value [2, 15]?
Answer: Its value is 0.

Question: And the “Plant response rating, Barnyardgrass” value [3, 12]?
Answer: The value was 90.

Question: What about the “Plant response rating, Barnyardgrass” value [3, 13] of the same compound?
Answer: The value was 100.

Question: And the “Plant response rating, Barnyardgrass” value [3, 14]?
Answer: The value was 100.

Question: And the “Plant response rating, Barnyardgrass” value [3, 15]?
Answer: Its value is 100.

Question: What about the “Plant response rating, Crabgrass, Large” value [4, 12] of the same compound?
Answer: Its value is 40.

Question: What about the “Plant response rating, Crabgrass, Large” value [4, 13] of the same compound?
Answer: Its value is 90.

Question: And the “Plant response rating, Crabgrass, Large” value [4, 14]?
Answer: The value was 10.

Question: What about the “Plant response rating, Crabgrass, Large” value [4, 15] of the same compound?
Answer: Its value is 90.

Question: And the “Plant response rating, Corn” value (corn (Zea mays); [12])?
Answer: The value was 50.

Question: What about the “Plant response rating, Corn” value (corn (Zea mays); [13]) of the same compound?
Answer: The value was 80.

Question: What about the “Plant response rating, Corn” value (corn (Zea mays); [14]) of the same compound?
Answer: The value was 0.

Question: What about the “Plant response rating, Corn” value (corn (Zea mays); [15]) of the same compound?
Answer: The value was 90.

Question: What about the “Bermudagrass plant response rating” value ([5]; postemergence, 0-100 scale) of the same compound?
Answer: Its value is 20.

Question: What about the “Plant response rating, Bermudagrass” value [5, 16] of the same compound?
Answer: Its value is 45.

Question: What about the “Plant response rating, Bermudagrass” value [5, 28] of the same compound?
Answer: The value was 65.

Question: And the “Bermudagrass plant response rating” value [5, 19]?
Answer: Its value is 0.

Question: What about the “Plant response rating, Bermudagrass” value [5, 20] of the same compound?
Answer: Its value is 0.

Question: And the “Plant response rating, Bermudagrass” value [5, 29]?
Answer: The value was 65.

Question: And the “Plant response rating, Bermudagrass” value [5, 30]?
Answer: Its value is 95.

Question: And the “Ryegrass, Italian plant response rating” value [6, 23]?
Answer: The value was 80.

Question: And the “Plant response rating, Ryegrass, Italian” value [6, 16]?
Answer: The value was 90.

Question: What about the “Plant response rating, Ryegrass, Italian” value [6, 28] of the same compound?
Answer: The value was 100.

Question: And the “Plant response rating, Ryegrass, Italian” value [6, 18]?
Answer: The value was 100.

Question: What about the “Plant response rating, Ryegrass, Italian” value [6, 20] of the same compound?
Answer: The value was 90.

Question: And the “Plant response rating, Ryegrass, Italian” value [6, 21]?
Answer: Its value is 90.

Question: What about the “Plant response rating, Ryegrass, Italian” value [6, 30] of the same compound?
Answer: Its value is 90.

Question: And the “Ryegrass, Italian plant response rating” value [6, 25]?
Answer: The value was 90.

Question: And the “Johnsongrass plant response rating” value [7, 23]?
Answer: The value was 0.

Question: And the “Plant response rating, Johnsongrass” value [7, 16]?
Answer: The value was 0.

Question: And the “Plant response rating, Johnsongrass” value [7, 28]?
Answer: Its value is 80.

Question: And the “Plant response rating, Johnsongrass” value [7, 18]?
Answer: Its value is 100.

Question: What about the “Plant response rating, Johnsongrass” value [7, 20] of the same compound?
Answer: The value was 65.

Question: And the “Plant response rating, Johnsongrass” value [7, 29]?
Answer: Its value is 80.

Question: What about the “Plant response rating, Johnsongrass” value [7, 30] of the same compound?
Answer: The value was 98.

Question: What about the “Johnsongrass plant response rating” value [7, 25] of the same compound?
Answer: Its value is 20.

Question: And the “Chickweed plant response rating” value [8]?
Answer: The value was 0.

Question: What about the “Plant response rating, Chickweed” value ([8]; 16 g ai/ha, scale 0 to 100) of the same compound?
Answer: The value was 0.

Question: And the “Plant response rating, Chickweed” value [8, 31]?
Answer: Its value is 0.

Question: And the “Plant response rating, Chickweed” value [8, 27]?
Answer: The value was 0.

Question: What about the “Windgrass plant response rating” value ([9]; 8 g ai/ha) of the same compound?
Answer: Its value is 50.

Question: And the “Plant response rating, Windgrass” value ([9]; 16 g ai/ha, scale 0 to 100)?
Answer: The value was 70.

Question: What about the “Plant response rating, Windgrass” value [9, 27] of the same compound?
Answer: The value was 100.

Question: And the “Barley plant response rating” value [10]?
Answer: The value was 20.

Question: And the “Plant response rating, Barley” value ([10]; 16 g ai/ha)?
Answer: Its value is 50.

Question: And the “Plant response rating, Barley” value ([10]; 62 g ai/ha)?
Answer: Its value is 50.

Question: And the “Canarygrass plant response rating” value [11]?
Answer: The value was 30.

Question: What about the “Plant response rating, Canarygrass” value ([11]; 16 g ai/ha, scale 0 to 100) of the same compound?
Answer: The value was 50.

Question: And the “Plant response rating, Canarygrass” value [11, 31]?
Answer: The value was 50.

Question: What about the “Plant response rating, Canarygrass” value [11, 27] of the same compound?
Answer: Its value is 95.
